Measured values: ChEMBL document CHEMBL3091427, “The discovery of the benzazepine class of histamine H3 receptor antagonists” (Bioorg Med Chem Lett, 2013)

What was measured:
Histamine H3 receptor [1] = molecular target: Histamine H3 receptor (Homo sapiens, UniProt Q9Y5N1); assay: Antagonist activity at human histamine H3 receptor expressed in CHOK1 cells assessed as inhibition of GTPgammaS binding by scintillation proximity assay; format: functional, cell-based, CHO-K1
Liver microsome [2] = assay: Intrinsic clearance in rat liver microsomes; format: ADME
Cytochrome P450 2D6 = Cytochrome P450 2D6 (Homo sapiens, UniProt P10635); assay: Inhibition of human CYP2D6; format: ADME
Liver microsome [3] = assay: Intrinsic clearance in human liver microsomes; format: ADME
[4] = Ratio of drug level in brain to blood in Lister Hooded rat at 3 mg/kg, po after 2 hrs; format: ADME, organism-based; design: dose 3 mg/kg, route oral
[5] = Terminal half life in iv dosed rat after 0.5 hrs; format: ADME, organism-based; conditions: in vivo, read-out: beta t1/2 (converted)
[6] = Dissociation constant, pKa of the compound; format: physicochemical
Histamine H3 receptor [7] = molecular target: Histamine H3 receptor (Rattus norvegicus, UniProt Q9QYN8); assay: Displacement of [3H]R-alpha-methylhistamine from histamine H3 receptor in rat cerebral cortical membranes after 45 mins by liquid scintillation spectrometry; format: cell membranes
[8] = Drug level in Lister Hooded rat brain at 3 mg/kg, po after 2 hrs; format: ADME, organism-based; design: dose 3 mg/kg, route oral; conditions: read-out: Ct
[9] = Lipophilicity, log D of the compound; format: physicochemical; conditions: octanol/water
Albumin = Albumin (Homo sapiens, UniProt P02768); assay: Binding affinity to human serum albumin; format: ADME; conditions: isolated protein
Rattus norvegicus [10] = assay: Reversal of RAMH-induced dipsogenia in Lister Hooded rat at 3 mg/kg, po; format: functional
[11] = Total blood clearance in iv dosed rat after 1 hr; format: ADME, organism-based; conditions: whole blood
[12] = Drug level in Lister Hooded rat blood at 3 mg/kg, po after 2 hrs; format: ADME, organism-based; design: dose 3 mg/kg, route oral; conditions: whole blood, read-out: Ct
hERG (KCNH2) = hERG (KCNH2) (Homo sapiens, UniProt Q12809); assay: Inhibition of human ERG at 10 uM by patch clamp assay
[13] = Volume of distribution at steady state in iv dosed rat after 1 hr; format: ADME, organism-based; conditions: in vivo, read-out: Vdss
Rattus norvegicus [14] = assay: Ex vivo binding affinity to histamine H3 receptor in po dosed Lister Hooded rat; format: functional
Histamine H1 receptor = Histamine H1 receptor (Homo sapiens, UniProt P35367); assay: Antagonist activity at human recombinant histamine H1 receptor expressed in CHO cells assessed as inhibition of histamine-induced effect by FLIPR assay; format: cell-based
Rattus norvegicus [15] = assay: Reversal of RAMH-induced dipsogenia in Lister Hooded rat at 10 mg/kg, ip; format: functional; conditions: route intraperitoneal

Chain of Cytochrome P450 2D6 (P10635 whole entry): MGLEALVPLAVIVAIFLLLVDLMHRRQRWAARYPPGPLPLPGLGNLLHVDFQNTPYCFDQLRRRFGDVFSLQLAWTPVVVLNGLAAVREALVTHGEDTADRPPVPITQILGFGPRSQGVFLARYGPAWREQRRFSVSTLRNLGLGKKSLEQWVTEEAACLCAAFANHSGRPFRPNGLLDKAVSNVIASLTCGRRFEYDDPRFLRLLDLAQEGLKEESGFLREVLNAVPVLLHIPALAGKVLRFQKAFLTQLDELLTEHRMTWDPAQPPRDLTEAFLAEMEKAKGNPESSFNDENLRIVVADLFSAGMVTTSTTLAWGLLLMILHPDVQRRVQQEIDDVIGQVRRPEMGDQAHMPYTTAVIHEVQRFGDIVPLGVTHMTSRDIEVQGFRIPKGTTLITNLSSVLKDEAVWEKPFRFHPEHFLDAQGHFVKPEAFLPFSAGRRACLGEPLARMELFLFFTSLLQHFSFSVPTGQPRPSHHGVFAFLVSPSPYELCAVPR
Chain of Histamine H3 receptor (Homo sapiens, UniProt Q9Y5N1) (Q9Y5N1 whole entry): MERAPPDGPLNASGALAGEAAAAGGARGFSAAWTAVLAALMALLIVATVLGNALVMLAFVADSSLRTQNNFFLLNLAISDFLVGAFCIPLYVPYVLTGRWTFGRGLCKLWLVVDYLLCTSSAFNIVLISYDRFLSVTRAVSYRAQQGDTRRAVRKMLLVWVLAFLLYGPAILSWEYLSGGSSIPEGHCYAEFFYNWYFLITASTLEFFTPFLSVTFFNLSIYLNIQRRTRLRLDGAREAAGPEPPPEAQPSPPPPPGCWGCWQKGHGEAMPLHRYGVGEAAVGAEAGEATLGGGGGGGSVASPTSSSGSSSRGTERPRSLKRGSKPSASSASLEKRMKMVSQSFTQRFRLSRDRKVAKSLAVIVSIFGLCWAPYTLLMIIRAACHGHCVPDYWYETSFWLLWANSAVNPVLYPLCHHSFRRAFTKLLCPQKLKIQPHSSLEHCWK
Chain of Albumin (P02768 whole entry): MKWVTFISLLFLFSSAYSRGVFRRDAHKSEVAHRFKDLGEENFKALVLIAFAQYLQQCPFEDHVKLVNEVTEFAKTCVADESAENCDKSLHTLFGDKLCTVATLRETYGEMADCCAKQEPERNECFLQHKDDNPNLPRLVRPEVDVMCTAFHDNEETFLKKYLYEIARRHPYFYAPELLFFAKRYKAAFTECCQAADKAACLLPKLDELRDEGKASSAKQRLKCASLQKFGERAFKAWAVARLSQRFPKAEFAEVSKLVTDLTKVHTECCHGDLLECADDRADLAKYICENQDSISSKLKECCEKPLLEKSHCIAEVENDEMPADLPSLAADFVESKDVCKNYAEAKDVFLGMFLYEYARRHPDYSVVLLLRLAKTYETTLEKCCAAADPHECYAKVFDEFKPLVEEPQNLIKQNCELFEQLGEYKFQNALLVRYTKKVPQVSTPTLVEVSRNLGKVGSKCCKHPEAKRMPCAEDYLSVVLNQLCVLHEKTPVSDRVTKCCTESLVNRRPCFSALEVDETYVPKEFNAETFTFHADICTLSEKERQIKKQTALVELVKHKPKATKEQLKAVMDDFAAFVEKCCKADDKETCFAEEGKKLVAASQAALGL
Chain of Histamine H1 receptor (P35367 whole entry): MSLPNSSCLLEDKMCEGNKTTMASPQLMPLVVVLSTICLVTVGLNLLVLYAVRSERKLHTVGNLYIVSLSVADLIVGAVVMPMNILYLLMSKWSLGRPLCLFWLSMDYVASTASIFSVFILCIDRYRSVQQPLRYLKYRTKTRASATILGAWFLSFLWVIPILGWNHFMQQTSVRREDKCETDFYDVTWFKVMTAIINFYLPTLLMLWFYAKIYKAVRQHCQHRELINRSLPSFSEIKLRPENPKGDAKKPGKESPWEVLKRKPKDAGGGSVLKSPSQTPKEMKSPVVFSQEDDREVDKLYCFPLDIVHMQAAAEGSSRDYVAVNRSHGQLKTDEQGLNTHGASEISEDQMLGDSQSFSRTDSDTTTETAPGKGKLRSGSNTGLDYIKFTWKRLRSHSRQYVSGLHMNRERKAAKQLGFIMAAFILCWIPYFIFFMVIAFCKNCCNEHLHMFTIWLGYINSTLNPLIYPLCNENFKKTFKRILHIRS
Chain of Histamine H3 receptor (Rattus norvegicus, UniProt Q9QYN8) (Q9QYN8 whole entry): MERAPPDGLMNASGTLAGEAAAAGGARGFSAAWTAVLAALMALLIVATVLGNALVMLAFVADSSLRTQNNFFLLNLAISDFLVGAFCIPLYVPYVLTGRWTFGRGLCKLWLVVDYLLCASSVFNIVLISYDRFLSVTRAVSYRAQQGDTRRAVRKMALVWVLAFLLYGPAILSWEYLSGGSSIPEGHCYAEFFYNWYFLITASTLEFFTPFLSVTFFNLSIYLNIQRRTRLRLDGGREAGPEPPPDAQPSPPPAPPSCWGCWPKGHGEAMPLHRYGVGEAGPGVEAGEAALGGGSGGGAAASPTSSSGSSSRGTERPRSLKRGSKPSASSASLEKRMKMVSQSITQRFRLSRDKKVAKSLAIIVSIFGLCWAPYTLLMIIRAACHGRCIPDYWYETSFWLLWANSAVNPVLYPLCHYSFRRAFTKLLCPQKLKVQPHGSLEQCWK
Chain of hERG (KCNH2) (Q12809 whole entry): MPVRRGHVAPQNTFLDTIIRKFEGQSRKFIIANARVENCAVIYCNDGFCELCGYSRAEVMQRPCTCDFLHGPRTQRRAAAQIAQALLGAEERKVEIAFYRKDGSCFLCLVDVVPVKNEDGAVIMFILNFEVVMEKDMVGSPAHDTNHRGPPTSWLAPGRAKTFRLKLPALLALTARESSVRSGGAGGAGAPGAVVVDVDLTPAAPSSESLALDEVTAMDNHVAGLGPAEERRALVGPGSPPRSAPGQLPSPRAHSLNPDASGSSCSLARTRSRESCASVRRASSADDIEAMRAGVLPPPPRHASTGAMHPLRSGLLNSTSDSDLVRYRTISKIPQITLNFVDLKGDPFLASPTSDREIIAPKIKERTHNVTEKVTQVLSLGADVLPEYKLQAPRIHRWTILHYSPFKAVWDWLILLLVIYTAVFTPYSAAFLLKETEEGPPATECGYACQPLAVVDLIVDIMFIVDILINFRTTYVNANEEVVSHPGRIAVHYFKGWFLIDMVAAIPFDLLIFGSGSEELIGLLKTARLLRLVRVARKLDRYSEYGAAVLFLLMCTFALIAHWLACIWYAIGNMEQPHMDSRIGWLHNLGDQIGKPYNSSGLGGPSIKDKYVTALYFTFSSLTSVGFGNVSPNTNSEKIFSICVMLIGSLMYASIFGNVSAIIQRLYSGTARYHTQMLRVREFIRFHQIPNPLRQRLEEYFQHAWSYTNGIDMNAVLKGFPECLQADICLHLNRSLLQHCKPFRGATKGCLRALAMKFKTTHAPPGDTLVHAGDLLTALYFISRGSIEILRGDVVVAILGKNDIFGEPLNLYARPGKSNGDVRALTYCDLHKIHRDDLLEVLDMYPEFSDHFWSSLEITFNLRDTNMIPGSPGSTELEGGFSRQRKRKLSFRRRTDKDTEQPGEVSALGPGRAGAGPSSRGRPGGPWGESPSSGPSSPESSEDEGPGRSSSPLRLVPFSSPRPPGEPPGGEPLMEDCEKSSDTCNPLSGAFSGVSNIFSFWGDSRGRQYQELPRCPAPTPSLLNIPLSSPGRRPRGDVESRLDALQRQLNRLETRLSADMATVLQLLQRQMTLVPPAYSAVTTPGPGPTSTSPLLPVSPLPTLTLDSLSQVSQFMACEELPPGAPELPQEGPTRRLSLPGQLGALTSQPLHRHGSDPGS

Row | Structure (SMILES) | Ki (Histamine H3 receptor [1]) | CLH (Liver microsome [2]) | CLH (Liver microsome [3]) | also measured
1 | c1cc2c(cc1OCCCN1CCCCC1)CCNC2 | 2.51 nM | – | – | –
2 | CC(=O)N1CCc2ccc(OCCCN3CCCCC3)cc2CC1 | 15.8 nM | – | – | –
3 | OC1CCN(CCCOc2ccc3c(c2)CCNCC3)CC1 | > 10000 nM | – | – | –
4 | c1ccc(COc2ccc3c(c2)CCN(C2CCC2)CC3)cc1 | 0.251 nM | > 50 mL/min/g | 12 mL/min/g | IC50 (Cytochrome P450 2D6): 0.6 µM
5 | O=C(N1CCOCC1)N1CCC(Oc2ccc3c(c2)CCN(C2CCC2)CC3)CC1 | 1 nM | 1.1 mL/min/g | 0.9 mL/min/g | Kp at 2 h [4]: 1.1; half-life [5]: 72 min; pKa [6]: 9.2; Ki (Histamine H3 receptor [7]): 12.6 nM; concentration at 2 h [8]: 530 nM; logD [9]: 2.2; Activity (Albumin): 49%; Activity (Rattus norvegicus [10]): 100%; clearance [11]: 63 mL/min/kg; concentration at 2 h [12]: 470 nM; inhibition at 10 µM (hERG (KCNH2)): < 30%; Vd [13]: 4.6 L/kg; ED50 (Rattus norvegicus [14]): 2.2 mg/kg
6 | c1ccc(COc2ccc3c(c2)CCN(CC2CC2)CC3)cc1 | 10 nM | > 50 mL/min/g | 11 mL/min/g | IC50 (Cytochrome P450 2D6): 1.5 µM; Ki (Histamine H1 receptor): 1000 nM
7 | CN1CCc2ccc(OCc3ccccc3)cc2CC1 | 316 nM | – | – | –
8 | CC(C)CN1CCc2ccc(OCc3ccccc3)cc2CC1 | 25.1 nM | – | – | –
9 | CC(C)N1CCc2ccc(OCc3ccccc3)cc2CC1 | 20 nM | – | – | –
10 | c1ccc(COc2ccc3c(c2)CCN(Cc2ccccc2)CC3)cc1 | > 1000 nM | – | – | –
11 | c1ccc(COc2ccc3c(c2)CCN(C2CC2)CC3)cc1 | 5.01 nM | – | – | –
12 | c1ccc(COc2ccc3c(c2)CCN(C2CCCC2)CC3)cc1 | 0.794 nM | > 50 mL/min/g | 19 mL/min/g | IC50 (Cytochrome P450 2D6): 0.6 µM
13 | c1ccc(COc2ccc3c(c2)CCN(C2CCCCC2)CC3)cc1 | 10 nM | – | – | –
14 | Cn1c(=O)ccc2cc(COc3ccc4c(c3)CCN(C3CCC3)CC4)ccc21 | 0.398 nM | 2.5 mL/min/g | 3.4 mL/min/g | IC50 (Cytochrome P450 2D6): 4.2 µM
15 | c1cc2c(cc1OCC1CCNCC1)CCN(C1CCC1)CC2 | 0.501 nM | 0.7 mL/min/g | 0.9 mL/min/g | IC50 (Cytochrome P450 2D6): 19 µM; Activity (Rattus norvegicus [10]): 44%
16 | c1cc2c(cc1OC1CCNCC1)CCN(C1CCC1)CC2 | 0.316 nM | 1.2 mL/min/g | 0.5 mL/min/g | –
17 | CS(=O)(=O)N1CCC(Oc2ccc3c(c2)CCN(C2CCC2)CC3)CC1 | 0.794 nM | 2.9 mL/min/g | 0.5 mL/min/g | IC50 (Cytochrome P450 2D6): 13 µM; Activity (Rattus norvegicus [10]): 6%

Row | Structure (SMILES) | Ki (Histamine H3 receptor [1]) | CLH (Liver microsome [2]) | CLH (Liver microsome [3]) | also measured
18 | O=C(c1ccc(Cl)cc1)N1CCC(Oc2ccc3c(c2)CCN(C2CCC2)CC3)CC1 | 0.501 nM | 2.9 mL/min/g | 0.8 mL/min/g | Activity (Rattus norvegicus [10]): 89%
19 | Cc1cc(C(=O)N2CCC(Oc3ccc4c(c3)CCN(C3CCC3)CC4)CC2)no1 | 1.58 nM | 3.5 mL/min/g | 1.2 mL/min/g | IC50 (Cytochrome P450 2D6): 43 µM; Activity (Rattus norvegicus [10]): 11%
20 | O=C(N[C@H]1CCN(Cc2ccc(OCCCN3CCCCC3)cc2)C1)c1ccc2c(c1)OCO2 | 0.0251 nM | – | – | Ki (Histamine H1 receptor): > 2510 nM; Activity (Albumin): 96%; Activity (Rattus norvegicus [15]): 78%
21 | c1cc2c(cc1OCCCN1CCCCC1)CCN2 | 15.8 nM | – | – | –
22 | c1cc2c(cc1OCCCN1CCCCC1)CCNCC2 | 3.98 nM | – | – | Ki (Histamine H1 receptor): 1260 nM
23 | c1ccc(COc2ccc3c(c2)CCNCC3)cc1 | > 10000 nM | – | – | –
24 | CN(C)CCCOc1ccc2c(c1)CCNCC2 | 100 nM | – | – | –
25 | c1cc2c(cc1OCCCN1CCOCC1)CCNCC2 | 100 nM | – | – | –
26 | FC1(F)CCN(CCCOc2ccc3c(c2)CCNCC3)CC1 | > 398 nM | – | – | –
27 | c1cc2c(cc1OCCN1CCCCC1)CCNCC2 | 158 nM | – | – | –
28 | CC(C)N1CCC(Oc2ccc3c(c2)CCNCC3)CC1 | 2.51 nM | – | – | Ki (Histamine H1 receptor): > 2510 nM
29 | c1ccc(N2CCc3ccc(OCCCN4CCCCC4)cc3CC2)cc1 | 10 nM | – | – | Ki (Histamine H1 receptor): 1000 nM
30 | c1cc2c(cc1OCCCN1CCCCC1)CCN(CC1CC1)CC2 | 0.501 nM | – | – | Ki (Histamine H1 receptor): 2000 nM
31 | c1cc2c(cc1OCCCN1CCCCC1)CCN(CC1CCCO1)CC2 (centres undefined) | 0.501 nM | – | – | Ki (Histamine H1 receptor): 2000 nM
32 | c1cc2c(cc1OCCN1CCCCC1)CCN(CC1CC1)CC2 | 0.794 nM | – | – | Ki (Histamine H1 receptor): > 2000 nM
33 | O=C(c1ccc(OCCCc2cnc[nH]2)cc1)C1CC1 [CIPROXIFAN] | – | – | – | Ki (Histamine H1 receptor): > 2510 nM; Activity (Albumin): 80%; Activity (Rattus norvegicus [10]): 100%
